Measured values from PMC6957519, “NLRP6 self-assembles into a linear molecular platform following LPS binding and ATP stimulation” (Scientific Reports, 2020).
Several values for one entry are separate records, joined by “and”; a condition that tells them apart may be missing. Identical values can stand only once.

What was measured:
NLRP6 [1] = biological target: T1, NLRP6 (Homo sapiens, UniProt P59044); assay: gel filtration and EM, nucleotide-induced oligomerization; assay type: binding; settings: with LPS (LPS-bound dimer); no shift of the monomer with ATP alone; putative NOD domain site
T1 construct: full-length 1-892; N-terminal His-MBP tag removed by HRV3C; E. coli BL21(DE3); monomer, dimerises with LPS
T1 sequence (P59044 1-892): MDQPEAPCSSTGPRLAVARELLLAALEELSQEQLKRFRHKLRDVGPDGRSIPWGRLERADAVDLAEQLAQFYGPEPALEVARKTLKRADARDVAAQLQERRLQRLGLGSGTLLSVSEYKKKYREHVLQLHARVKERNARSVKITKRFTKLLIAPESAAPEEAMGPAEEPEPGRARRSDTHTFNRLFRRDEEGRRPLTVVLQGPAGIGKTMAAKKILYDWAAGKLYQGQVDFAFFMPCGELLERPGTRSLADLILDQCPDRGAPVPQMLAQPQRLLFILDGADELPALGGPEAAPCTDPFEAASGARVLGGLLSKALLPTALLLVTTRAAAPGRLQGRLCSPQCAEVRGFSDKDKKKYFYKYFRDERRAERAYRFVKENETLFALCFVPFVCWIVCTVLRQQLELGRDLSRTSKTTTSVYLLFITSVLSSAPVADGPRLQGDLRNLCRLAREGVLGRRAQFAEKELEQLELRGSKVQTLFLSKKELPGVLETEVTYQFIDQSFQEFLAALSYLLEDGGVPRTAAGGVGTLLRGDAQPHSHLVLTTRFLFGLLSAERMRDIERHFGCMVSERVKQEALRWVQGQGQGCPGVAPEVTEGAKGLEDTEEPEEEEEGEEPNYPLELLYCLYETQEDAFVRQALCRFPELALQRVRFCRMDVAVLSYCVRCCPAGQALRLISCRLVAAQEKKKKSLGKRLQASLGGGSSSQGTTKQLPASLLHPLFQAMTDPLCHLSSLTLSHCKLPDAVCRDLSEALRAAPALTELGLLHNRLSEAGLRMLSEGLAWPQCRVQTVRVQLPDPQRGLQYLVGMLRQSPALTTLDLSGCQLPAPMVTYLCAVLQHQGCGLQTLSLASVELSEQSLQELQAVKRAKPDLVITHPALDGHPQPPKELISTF

NLRP6 [2] = biological target: T1, NLRP6; assay: nucleotide-induced oligomerization; assay type: binding; settings: with LPS (LPS-bound dimer); putative NOD domain site
[3] = biological target: the molecule itself; assay: SEC; NLRP6 monomer incubated with LPS (Ra, 10 uM or 20 uM; NLRP6 to component 1:20), Superdex 200 10/300; similar peak shifts with LPS Rc, Rd, Re, Lipid A, FITC-LPS and Pam3CSK4
[4] = biological target: the molecule itself; assay: negative-stain electron microscopy; NLRP6 with LPS and ATP increased to 2 mM
[5] = biological target: the molecule itself; assay: negative-stain electron microscopy with 3D reconstruction; NLRP6 with LPS and 1 mM ATP (peak 3 of the gel filtration); particles classed by the number of shrinked links; tetramer map from 8783 particles

Nc1ncnc2c1ncn2[C@@H]1O[C@H](COP(=O)(O)OP(=O)(O)OP(=O)(O)O)[C@@H](O)[C@H]1O [ATP]
gel filtration and EM, nucleotide-induced oligomerization (NLRP6 [1]): in the presence of both ATP and LPS, NLRP6 showed additional peak shifts

Nc1ccn([C@@H]2O[C@H](COP(=O)(O)OP(=O)(O)OP(=O)(O)O)[C@@H](O)[C@H]2O)c(=O)n1 [CTP]
nucleotide-induced oligomerization (NLRP6 [2]): demonstrated by ATP, GTP, CTP, TTP, and deoxy-ATP (dATP) treatment

Nc1nc2c(ncn2[C@@H]2O[C@H](COP(=O)(O)OP(=O)(O)OP(=O)(O)O)[C@@H](O)[C@H]2O)c(=O)[nH]1 [GTP]
nucleotide-induced oligomerization (NLRP6 [2]): demonstrated by ATP, GTP, CTP, TTP, and deoxy-ATP (dATP) treatment

Cc1cn([C@H]2C[C@H](O)[C@@H](COP(=O)(O)OP(=O)(O)OP(=O)(O)O)O2)c(=O)[nH]c1=O [TTP]
nucleotide-induced oligomerization (NLRP6 [2]): demonstrated by ATP, GTP, CTP, TTP, and deoxy-ATP (dATP) treatment

Nc1ncnc2c1ncn2[C@H]1C[C@H](O)[C@@H](COP(=O)(O)OP(=O)(O)OP(=O)(O)O)O1 [deoxy-ATP]
nucleotide-induced oligomerization (NLRP6 [2]): demonstrated by ATP, GTP, CTP, TTP, and deoxy-ATP (dATP) treatment

B1: Recombinant full-length human NLRP6 (1–892) (natural protein, UniProt P59044 1-892, looked up)
chain: T1 sequence (P59044 1-892)
notes: NLRP6, human, full length, residues 1-892; Number of copies depends on the condition: monomer in the arginine buffer, dimer with LPS, tetramer, hexamer and longer linear oligomers with LPS and ATP; also called NLRP6 monomer; NLRP6 dimer; not shown: His-tag, N-terminal, cleaved; MBP, N-terminal, cleaved
stoichiometry N [3]: 2
stoichiometry N [4]: 16 and 18
stoichiometry N [5]: 4 and 6 and 8 and 10
